The nature of data set [1]: Retention time by HPLC method. In kind it is physicochemical.
The nature of data set [2]: Selectivity index, ratio of IC50 for mouse HDAC6 to IC50 for human HDAC1.
Another data set has as its system Mv1Lu. Put plainly: Inhibition of HDAC in mink Mv1Lu cells expressing human wild-type p21 promoter luciferase fusion plasmid assessed as drug level inducing 10-fold higher luciferase activity by p21 promoter assay relative to baseline. In kind it is cell-based. As to conditions: Neovison vison.
The target of data set [3] is T1, Protein deacetylase HDAC6 (Mus musculus, UniProt Q9Z2V5).
T1 sequence (Q9Z2V5 whole entry): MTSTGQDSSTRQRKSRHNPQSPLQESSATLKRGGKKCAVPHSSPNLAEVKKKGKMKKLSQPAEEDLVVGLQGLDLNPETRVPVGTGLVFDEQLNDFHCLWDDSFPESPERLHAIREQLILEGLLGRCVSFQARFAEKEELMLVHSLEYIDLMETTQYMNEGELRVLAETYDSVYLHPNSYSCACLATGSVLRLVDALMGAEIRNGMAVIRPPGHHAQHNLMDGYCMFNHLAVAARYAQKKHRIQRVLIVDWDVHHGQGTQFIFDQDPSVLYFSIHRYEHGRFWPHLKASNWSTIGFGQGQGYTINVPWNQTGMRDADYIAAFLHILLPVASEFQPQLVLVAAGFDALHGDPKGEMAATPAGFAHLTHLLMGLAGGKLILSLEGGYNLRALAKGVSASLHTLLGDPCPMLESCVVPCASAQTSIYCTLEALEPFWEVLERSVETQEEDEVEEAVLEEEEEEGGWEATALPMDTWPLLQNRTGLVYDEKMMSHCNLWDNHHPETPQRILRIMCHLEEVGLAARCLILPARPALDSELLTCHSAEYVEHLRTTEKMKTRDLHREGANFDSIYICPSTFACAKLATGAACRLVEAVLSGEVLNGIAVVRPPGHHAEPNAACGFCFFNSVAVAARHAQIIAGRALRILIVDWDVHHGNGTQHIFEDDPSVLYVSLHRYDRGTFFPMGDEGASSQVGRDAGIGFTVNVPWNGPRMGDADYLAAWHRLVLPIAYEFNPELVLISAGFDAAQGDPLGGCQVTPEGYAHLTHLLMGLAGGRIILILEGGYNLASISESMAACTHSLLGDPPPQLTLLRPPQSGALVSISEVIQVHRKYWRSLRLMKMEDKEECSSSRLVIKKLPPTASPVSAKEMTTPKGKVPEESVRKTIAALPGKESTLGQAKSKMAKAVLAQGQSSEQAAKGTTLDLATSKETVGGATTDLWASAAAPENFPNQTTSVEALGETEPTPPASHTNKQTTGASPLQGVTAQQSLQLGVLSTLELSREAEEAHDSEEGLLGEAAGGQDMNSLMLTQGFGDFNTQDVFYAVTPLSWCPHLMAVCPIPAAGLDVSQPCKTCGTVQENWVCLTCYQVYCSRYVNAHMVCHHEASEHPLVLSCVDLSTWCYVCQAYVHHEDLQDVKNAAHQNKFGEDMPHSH
Briefly: Inhibition of mouse HDAC6 expressed in HEK293T cells assessed as aminomethyl coumarin release using Ac-KGLGK(Ac)-MCA) substrate after 30 mins by FLIPR method. In kind it is cell-based, HEK-293T.

For another data set, the target named is Histone deacetylase 1 (Homo sapiens, UniProt Q13547). Put plainly: Inhibition of human HDAC1 expressed in HEK293T cells assessed as aminomethyl coumarin release using Ac-KGLGK(Ac)-MCA) substrate after 30 mins by FLIPR method. In kind it is cell-based, HEK-293T.
In the next data set the target is Histone deacetylase 4 (Homo sapiens, UniProt P56524). Put plainly: Inhibition of human HDAC4 expressed in HEK293T cells assessed as aminomethyl coumarin release using Ac-KGLGK(Ac)-MCA) substrate after 30 mins by FLIPR method. The data set is classed as cell-based. As to conditions: hek-293t.

pIC50: −log10 of the molar value. Square brackets hold non-standard residues; d marks the D form. Peptide text beside a SMILES is read from it. * marks the point of attachment. Asu = N[C@@H](CCCCCC(=O)O)C(=O)O; NHOH = ON*

Sequence of Histone deacetylase 1 (Q13547 whole entry): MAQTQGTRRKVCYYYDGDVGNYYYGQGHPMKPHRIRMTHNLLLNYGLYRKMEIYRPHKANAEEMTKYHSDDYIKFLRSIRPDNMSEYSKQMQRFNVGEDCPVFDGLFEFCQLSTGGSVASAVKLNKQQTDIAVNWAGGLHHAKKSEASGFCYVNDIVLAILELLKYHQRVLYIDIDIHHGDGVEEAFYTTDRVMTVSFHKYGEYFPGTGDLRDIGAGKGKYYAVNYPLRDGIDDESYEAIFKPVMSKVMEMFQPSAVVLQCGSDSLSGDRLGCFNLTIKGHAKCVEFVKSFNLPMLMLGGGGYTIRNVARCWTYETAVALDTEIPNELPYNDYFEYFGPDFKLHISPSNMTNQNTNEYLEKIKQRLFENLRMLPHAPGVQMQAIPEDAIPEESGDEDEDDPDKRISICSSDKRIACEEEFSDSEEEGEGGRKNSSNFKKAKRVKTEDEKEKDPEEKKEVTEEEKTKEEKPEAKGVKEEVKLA
Sequence of Histone deacetylase 4 (P56524 whole entry): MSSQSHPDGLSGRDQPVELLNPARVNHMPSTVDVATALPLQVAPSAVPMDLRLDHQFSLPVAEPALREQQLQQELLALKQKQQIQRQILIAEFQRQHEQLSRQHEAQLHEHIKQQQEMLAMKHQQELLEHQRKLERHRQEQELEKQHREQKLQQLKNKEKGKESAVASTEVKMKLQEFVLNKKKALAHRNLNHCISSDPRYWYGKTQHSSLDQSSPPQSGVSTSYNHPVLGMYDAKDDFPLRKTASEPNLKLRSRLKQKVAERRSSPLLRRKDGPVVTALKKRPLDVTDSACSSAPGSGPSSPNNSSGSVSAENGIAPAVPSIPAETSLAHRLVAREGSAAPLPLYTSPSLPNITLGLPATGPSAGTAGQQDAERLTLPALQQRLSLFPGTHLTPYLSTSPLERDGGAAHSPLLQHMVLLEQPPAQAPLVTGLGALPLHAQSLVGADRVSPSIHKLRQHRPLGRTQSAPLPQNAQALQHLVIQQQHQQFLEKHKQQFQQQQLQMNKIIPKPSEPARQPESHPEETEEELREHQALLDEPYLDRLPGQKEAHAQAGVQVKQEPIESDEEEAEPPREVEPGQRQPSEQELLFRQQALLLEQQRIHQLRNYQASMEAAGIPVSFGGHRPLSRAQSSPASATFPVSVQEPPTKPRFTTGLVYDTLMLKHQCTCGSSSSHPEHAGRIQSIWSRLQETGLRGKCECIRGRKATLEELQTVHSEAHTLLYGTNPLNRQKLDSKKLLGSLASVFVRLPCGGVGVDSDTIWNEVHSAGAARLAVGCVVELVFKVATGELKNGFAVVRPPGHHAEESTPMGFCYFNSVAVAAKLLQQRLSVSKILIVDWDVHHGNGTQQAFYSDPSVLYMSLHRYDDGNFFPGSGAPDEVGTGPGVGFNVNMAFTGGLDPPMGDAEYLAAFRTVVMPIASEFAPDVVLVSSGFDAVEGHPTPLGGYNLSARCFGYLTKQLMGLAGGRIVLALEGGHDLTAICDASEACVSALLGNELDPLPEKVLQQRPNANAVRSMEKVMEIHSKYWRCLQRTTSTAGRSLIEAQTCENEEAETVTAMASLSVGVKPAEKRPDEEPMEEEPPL

Regarding `O=C(CCCCC[C@@H]1NC(=O)[C@H]2CCCN2C(=O)[C@@H]2CCCCCCCCCC[C@@H](NC1=O)C(=O)N2)NO`, in data set [1], the Retention_time is listed as 6.03 min. Also, in data set [2], the Ratio IC50 came to 45.1. For the same molecule, in the data set with Mv1Lu, the EC1000 is 7.2 nM. Further, the negative-log IC50 (pIC50) in data set [3] was 6.39.
As for `CC[C@H](C)[C@@H]1NC(=O)[C@@H](Cc2ccc(OC)cc2)NC(=O)[C@H](CCCCCC(=O)NO)NC(=O)[C@H]2CCCN2C1=O` (cyclo([Asu](NHOH)[dY](Me)I[dP])), the Ratio IC50 in data set [2] worked out at 32.5. Further, the EC1000 with Mv1Lu was 22 nM. Further, the pIC50 is 7.89 in data set [3], 9.40 on Histone deacetylase 1 and 8.52 on Histone deacetylase 4.
Take `O=C(CCCCC[C@@H]1NC(=O)[C@H]2CCCN2C(=O)[C@@H]2CCOCCCCOCC[C@@H](NC1=O)C(=O)N2)NO`: in data set [1], the Retention_time was found to be 4.31 min. In data set [2], the Ratio IC50 is 7.7. The EC1000 in the data set on Mv1Lu worked out at 2200 nM. The pIC50 is 6.62 in data set [3], 7.51 at Histone deacetylase 1 and 7.39 on Histone deacetylase 4.
For `O=C(CCCCC[C@@H]1NC(=O)[C@H]2CCCCCCCCCC[C@H](NC(=O)[C@H]3CCCN3C1=O)C(=O)N2)NO`, the Retention_time in data set [1] amounted to 7.06 min. Also, the Ratio IC50 in data set [2] was determined as 19.6. The EC1000 with Mv1Lu worked out at 58 nM. Moreover, the pIC50 was 6.31 in data set [3], 7.60 at Histone deacetylase 1 and 7.51 at Histone deacetylase 4.
Regarding `O=C(CCCCC[C@@H]1NC(=O)[C@H]2CCCN2C(=O)[C@@H]2CCCCCCCCCC[C@H](NC1=O)C(=O)N2)NO`, the Retention_time in data set [1] was 5.8 min. Besides, the Ratio IC50 in data set [2] is 9.2. The EC1000 with Mv1Lu was 510 nM. For the same molecule, the pIC50 in data set [3] was 6.64; on Histone deacetylase 1, 7.60; on Histone deacetylase 4, 7.59.
`CCCCC[C@@H]1NC(=O)[C@@H](CCCCC)NC(=O)[C@H](CCCCCC(=O)NO)NC(=O)[C@H]2CCCN2C1=O`: in data set [1], the Retention_time amounted to 7.51 min. The Ratio IC50 in data set [2] is 13.6. In addition, in the data set with Mv1Lu, the EC1000 was found to be 13 nM. Moreover, the pIC50 in data set [3] is 6.47.
`CCCCC[C@@H]1NC(=O)[C@H]2CCCN2C(=O)[C@H](CCCCCC(=O)NO)NC(=O)[C@@H](CCCCC)NC1=O` registered a Retention_time in data set [1] of 7.67 min. Also, in data set [2], the Ratio IC50 came out at 13.3. Also, the EC1000 in the data set on Mv1Lu came to 80 nM. For the same molecule, the pIC50 in data set [3] was 6.24; at Histone deacetylase 1, 7.37; on Histone deacetylase 4, 7.37.
Turning to `CCCCC[C@@H]1NC(=O)[C@H](CCCCCC(=O)NO)NC(=O)[C@H]2CCCN2C(=O)[C@H](CCCCC)NC1=O`, the Retention_time in data set [1] is listed as 6.55 min. For the same molecule, in data set [2], the Ratio IC50 is 3.7. For the same molecule, the EC1000 with Mv1Lu is 80 nM. For the same molecule, the pIC50 in data set [3] was 6.85; on Histone deacetylase 1, 7.43; at Histone deacetylase 4 it was 7.82.

Usually pIC50 stands for −log10 of the IC50, conventionally taken in molar units.

For the origin of these results see ChEMBL document CHEMBL3352754, “Bicyclic tetrapeptides as potent HDAC inhibitors: effect of aliphatic loop position and hydrophobicity on inhibitory activity” (Bioorg Med Chem, 2014).
